Reference: patent US5932709A (University of Michigan, priority 1997, dated 1999)
In brackets after ≈: the same amount, converted by molar mass.

Legend:
[1] = molecular target: T1, human placental topoisomerase I (Homo sapiens, UniProt P11387); test: Inhibition of topoisomerase I catalytic activity (relaxation of supercoiled SV40 DNA); format: biochemical; settings: for relaxation of supercoiled DNA: FIG. 18 / FIG. 19, in words; for topoisomerase I inhibitory activity: comparison in words, vs camptothecin; for topoisomerase I inhibition: highest concentration tested (100 μg/mL), in words
T1 construct: purchased TopoGen; host or cells: human placenta
T1 sequence (P11387 1-765): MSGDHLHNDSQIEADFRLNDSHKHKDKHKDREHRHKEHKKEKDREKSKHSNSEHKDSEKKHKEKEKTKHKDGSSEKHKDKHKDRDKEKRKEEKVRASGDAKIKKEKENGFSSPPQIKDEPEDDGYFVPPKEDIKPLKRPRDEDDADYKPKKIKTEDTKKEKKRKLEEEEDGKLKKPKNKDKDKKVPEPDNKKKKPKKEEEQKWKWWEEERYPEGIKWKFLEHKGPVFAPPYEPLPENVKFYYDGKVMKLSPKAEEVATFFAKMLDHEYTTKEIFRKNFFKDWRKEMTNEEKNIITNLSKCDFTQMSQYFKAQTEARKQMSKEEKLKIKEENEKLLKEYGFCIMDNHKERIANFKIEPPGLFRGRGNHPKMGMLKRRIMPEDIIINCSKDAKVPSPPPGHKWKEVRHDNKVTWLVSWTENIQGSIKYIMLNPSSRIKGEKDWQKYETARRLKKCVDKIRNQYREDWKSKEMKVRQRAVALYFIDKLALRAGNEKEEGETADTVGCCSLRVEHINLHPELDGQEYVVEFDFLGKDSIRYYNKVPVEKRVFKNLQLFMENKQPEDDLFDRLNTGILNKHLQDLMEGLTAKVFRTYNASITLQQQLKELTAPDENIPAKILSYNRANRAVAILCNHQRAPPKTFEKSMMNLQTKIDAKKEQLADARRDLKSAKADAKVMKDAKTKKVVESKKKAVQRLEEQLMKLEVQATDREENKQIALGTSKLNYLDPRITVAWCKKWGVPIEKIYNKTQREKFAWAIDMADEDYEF
Method: The topoisomerase I catalytic activity was measured by converting the supercoiled SV40 DNA (Form I) to the relaxed form (Form Io). All reactions were performed in 20 μL reaction buffer (Tris-HCl, 10 mM, pH 7.5; EDTA, 1 mM; NaCl, 100 mM) with 0.25 μg SV40 DNA, 0.5 unit of human placental topoisomerase I (TopoGen) and graded concentrations of the analog tested. The reaction mixtures were incubated at 37° C. for 30 minutes. […] Ten μL of the reaction mixture was loaded onto a 1% agarose gel prepared in TAE buffer containing 2 μg/mL chloroquine; and the electrophoresis was performed at 82 volt for 4.5 hr in the TAE buffer containing 2 μg/mL chloroquine. […] The gels were then stained with 0.5 μg/mL ethidium bromide solution for 30 min or longer (if chloroquine is present during the electrophoresis step), and destained with 5 changes of deionized water. […] The DNA bands (image) on the negative were densitometrically scanned with a Molecular Dynamic Personal Densitometer. The percent inhibition of Toposiomerase I activity is calculated based on the following equation:
% Inhibition=(FSC(E+D) -FSC(E))/(FSC(C)
where FSC(E+D) represents fraction of supercoiled DNA in the presence of enzyme and drug; FSC(E) represents fraction of supercoiled DNA in the presence of enzyme alone; FSC(C) represents fraction of supercoiled DNA in the untreated SV40 DNA; the IC50 value was estimated using the same four-parameter logistic equation described in the in vitro growth inhibition studies.

[2] = test system: P388/CPT CPT-resistant murine leukemia cells; test: MTT growth inhibition, P388/CPT; format: cell-based; settings: Mus musculus, 72 h, 3 days, read-out: Growth Inhibitory Activity IC50
Method: Camptothecin was used as a control to test the anti-cancer efficacy of the novel camptothecin analogs of the present invention.
Murine B16 melanoma cell line was grown in RPMI 1640 medium supplemented with 10% heat-inactivated fetal bovine serum, 2 mM L-glutamine, 50 units/mL penicillin, 50 μg/mL streptomycin, 25 μg/mL gentamicin, 0.75% sodium bicarbonate 10 mM HEPES buffer (pH 7.4), and 0.06 mg/mL AntiPPLO. Murine P388 leukemic cell line and human HT-29 colon adenocarcinoma line were maintained in RPMI 1640 medium supplemented with 10% heat-inactivated fetal bovine serum. […] MCF-7M human breast adenocarcinoma was maintained in IMEM supplemented with 5% non heat-inactivated fetal bovine serum and 1 nM insulin.
[See "Rapid Colorimetric Assay For Cellular Growth And Survival: Application To Proliferation And Cytotoxicity Assays," J. Immun. Meth. 65:55 (1983)]. The assay utilizes a tetrazolium salt to quantitatively measure mammalian cell survival and proliferation by colorimetric methods. In particular, MTT, a pale yellow compound with minimal absorbance, is incubated with cancerous cells in addition to (or in the absence of) a particular camptothecin analog. Living cells with active mitochondrial enzymes metabolize the MTT into a dark blue/purple formazan product with high absorbance. The exact procedure used to test the camptothecin analogs of the present invention is described below.
Exponentially growing cells (1-2×10^3 cells, unless specified otherwise) in 0.1 mL medium were seeded on day 0 in a 96-well microtiter plate. On day 1, 0.1 mL aliquots of medium containing graded concentrations of test analogs were added to the cell plates. After incubation at 37° C. in a humidified incubator for 3 days (P388, P388/CPT, B16) or 6 days (HT-29, MCF-7M), the plates were centrifuged briefly and 100 μL of the growth medium was removed. Cell cultures were incubated with 50 μL of 3-(4,5-dimethylthiazol-2-yl)-2,5-diphenyl-tetrazolium bromide [MTT, 1 mg/mL in Dulbecco's phosphate buffered saline (PBS)] for 4 hr at 37° C. The resulting purple formazan precipitate was solubilized with 200 μL of 0.04 N HCl in isopropyl alcohol. Absorbance was monitored in a BioRad Model 3550 Microplate Reader at a test wavelength of 570 nm and a reference wavelength of 630 nm. The absorbance is transferred to a PC 486 computer. The IC50 values were determined by a computer program (EZ-ED50) that fits all of the data to the following four-parameter logistic equation:
Y=(Amax -Amin)/(1+[X/IC^50 ])^n +Amin
where Amax is the absorbance of control cells, Amin is the absorbance of cells in the presence of highest agent concentration, IC^50 is the concentration of agent that inhibits the cell growth by 50% of control cells (based on the absorbance) and n is the slope of the curve.

SMILES | IC50 [1] [µM] | relaxation of supercoiled DNA [1] | topoisomerase I inhibitory activity [1] | IC50 [2] [µg/mL] | topoisomerase I inhibition [1] | topoisomerase I inhibition relative to HAR4 ([1]; more inhibitory than HAR4) [times]
CC[C@@]1(O)C(=O)OCc2c1cc1n(c2=O)Cc2c-1nc1ccccc1c2CO[C@@H]1C=C[C@H](OC(C)=O)[C@@H](COC(C)=O)O1 [HAR4, 7-[4,6-di-O-acetyl-2,3-dideoxy-α-D-erythro-hex-2-enopyranosyl]oxymethylcamptothecin] | 42.3 | inhibition of relaxation of supercoiled DNA | quite similar to those of camptothecin | 7.04 (≈ 11.9 µM) |  | 
CC[C@@]1(O)C(=O)OCc2c1cc1n(c2=O)Cc2c-1nc1ccccc1c2CO[C@@H]1C=C[C@H](O[C@H]2O[C@H](CO)[C@@H](O)[C@H](O)[C@H]2O)[C@@H](CO)O1 [HAR6, 7-[4-O-(α-D-glucopyranosyl)-2,3-dideoxy-α-D-erythro-hex-2-enopyranosyl]-oxymethylcamptothecin] | > 150 | inhibition of relaxation of supercoiled DNA |  | 28.4 (≈ 42.5 µM) | moderately inhibited topoisomerase I activity | 
CC[C@@]1(O)C(=O)OCc2c1cc1n(c2=O)Cc2c-1nc1ccccc1c2CO[C@@H]1C=C[C@H](O[C@H]2O[C@H](COC(C)=O)[C@@H](OC(C)=O)[C@H](OC(C)=O)[C@H]2OC(C)=O)[C@@H](COC(C)=O)O1 [HAR5, 7-[6-O-acetyl-4-O-(2,3,4,6-tetra-O-acetyl-α-D-glucopyranosyl)-2,3-dideoxy-α-D-erythro-hex-2-enopyranosyl]oxymethylcamptothecin] | > 114 | inhibition of relaxation of supercoiled DNA |  | 21.2 (≈ 24.1 µM) | moderately inhibited topoisomerase I activity | 
CC[C@@]1(O)C(=O)OCc2c1cc1n(c2=O)Cc2c-1nc1ccccc1c2CO[C@@H]1C=C[C@H](O)[C@@H](CO)O1 [HAR7, 7-[2,3-dideoxy-α-D-erythro-hex-2-enopyranosyl]-oxymethylcamptothecin] | 3.95 | inhibition of relaxation of supercoiled DNA | quite similar to those of camptothecin | 18.7 (≈ 36.9 µM) |  | 10
